Experimental data reported in publication PMC9986545, “A novel oral formulation of the melanocortin-1 receptor agonist PL8177 resolves inflammation in preclinical studies of inflammatory bowel disease and is gut restricted in rats, dogs, and humans” (Frontiers in Immunology, 2023).

Assays:
[1] = tested on: male Wistar rats with DSS-induced colitis; assay: DSS-induced colitis model in rats; type: in vivo
Procedure: . Groups of 6 male Wistar rats weighing 200 ± 20 g were used. All animals, except those in the sham group, received 5% DSS in the drinking water for 3 days, from day 1 to day 3, which was then changed to normal drinking water for the following 5 days in the study. The rats in the sham group were given drinking water only. […]. Mesalazine, which is approved for the treatment of IBD, including ulcerative colitis and Crohn’s disease, was administered orally as a positive control (300 mg/kg once daily) starting on day 4 through day 7 for a total of 4 consecutive days ( Figure 1 ). Colitis was assessed by disease activity index (diarrhea and rectal bleeding) during the study and by colon length shortening, colon weight gain, and colon histopathologic assessment after organ harvesting on day 8. At termination on day 8, 24 hours after the last dose, colon tissues were harvested, rinsed, photographed, weighed, and their lengths measured, and then cut into 2 halves 7 cm from the anus. One half of the harvested colon tissue was snap-frozen with liquid nitrogen for cytokine measurement (interferon [IFN]-γ, IL-1β, IL-6, and TNF-α). The other half of the colon tissue was further cut into 3 parts 2.5, 5, and 7 cm from the anus, fixed in 10% formalin, and kept in 70% ethanol for histopathology. The colon length and colon-to-body weight ratio was calculated for each animal according to the formula: colon weight (g)/body weight (g) × 100%. Colon tissues from rats (n=6 per treatment group) were drop-fixed in 4% paraformaldehyde embedded in paraffin, and sectioned at 4 µm. For histologic scoring, colon sections were stained with hematoxylin and eosin. For immunohistochemistry, colon sections were processed for antigen retrieval and immunostained with primary antibody: keratin 18 (K18) (1:400, Bioss, bs-5405R) and with a rabbit-specific biotin-conjugated secondary antibody from HistoWiz (HistoWiz, Inc. Brooklyn, NY). Representative images were taken at 10x magnification and quantification was performed using HistoWiz AI technology counting positive cells versus all nuclei, specifically in the crypts. All analyses were performed by blinded individuals.
Histologic criteria for the analysis of colitis included abnormalities of mucosal architecture, extent of inflammation, erosion or ulceration, epithelial regeneration, and the percentage involvement of the disease process. The scoring was based on the findings of independent observers by examining 3 colon sections from each animal. Scoring was from 0 = none to 4 = severe for each item, except for percentage involvement of disease process, which scored from 1 (1%–25%) to 4 (76%–100%). Total scores for colitis (total colitis index) were added, resulting in a combined histologic score range from 0 to 60 ( Table S1 ).
Descriptive statistics were used for assessment of colon damage scores (diarrhea, rectal bleeding, and colon weight gain) (DNBS and DSS rat studies) and for the distribution of PL8177 and main metabolite in the GI tract (Sprague-Dawley rat and dog studies). Mean ± SEM were determined, and 1-way analysis of variance followed by Dunnett’s test was applied for comparison between the vehicle and treated groups. Significance was set at the P<0.05 level.
Table S1.Scoring Table for Calculating Total Colitis Index Score in DSS Colitis –Induced Rats
Abnormalities of mucosal None (Norm al) 0
Minimal for focal, not exceeding laminar propria 1
Mild abnormality, cystic dilation/aberrant crypts 2
Moderate or multifocal abnormalities 3
Severe, entire crypt and epithelium lost 4
Extent of inflammation None 0
Minimal for focal, scatter ed calls (<10 %) 1
Moderate, inflammatory cells extending into the submucosa 3
Severe, transmural leukocytic infiltrate from mucosa to serosa 4
Erosion or ulceration No erosion, ulceration, or granulation tissue 0
Minimal or focal, not exceeding lamina propri a 1
Severe ulceration or granulation tissue 4
Epithelial regression Complete regeneration or normal tissue 0 […]

mice with colitis = tested on: mice with colitis; design: method as in PMID 9145424; details: twice-daily α-MSH exposure; cited from earlier work
[2] = Mesalazine 300 mg/kg QD oral, days 4-7, day 8, n=6

Molecule | % Decrease in Colon Weight vs Vehicle Control ([1]; Mesalazine 300 mg/kg QD oral, days 4-7, day 8) | Mean Colon Length (SEM) [1, 2] | Mean Colon Weight (SEM) [1, 2] | Mean Colon Weight/100 g Body Weight (SEM) [1, 2] | Net Increase (SEM) of colon weight/100 g body weight [1, 2] | Mean Body Weight (SEM) (Day 8) ([1]; Mesalazine 300 mg/kg QD oral, days 4-7, n=6) | Number of K18 positive cells in colon crypts (immunohistochemistry) vs vehicle ([1]; PL8177 (100 µg) or mesalazine, day 8) | Total colitis score (total colitis index), mean [SD] ([1]; mesalazine 300 mg/kg QD oral, histology day 8, n=6, range 0-60) | Reduction in fecal blood (mice with colitis)
Nc1ccc(O)c(C(=O)O)c1 [Mesalazine] | 35% | 18.6 (0.5) cm | 0.570 (0.031) g | 0.235 (0.012) | 0.073 (0.012) | 242.5 (3.0) g | increased number of K18 positive cells, similar to sham | 28.5 [7.71] | –
α-MSH | – | – | – | – | – | – | – | – | 80%
